Results reported in ChEMBL document CHEMBL4665874, “The splicing modulator sulfonamide indisulam reduces AR-V7 in prostate cancer cells” (2020).
The source made the active and inactive calls. No cut-off for these calls is given here.

Columns and labels:
VCaP [1] = experiment: Antitumor activity against human VCaP cells xenografted in NSG mouse assessed as tumor volume at 10 mg/kg, po co-administered with 25 mg/kg AR antagonist MDV via gavage with 5 days on and 2 days off dosing schedule for 6 weeks and measured bi-weekly for 6 weeks (reference value: 698.9 +/-286.5 […]); type: functional
[2] = molecular target: T1, RNA-binding protein 39 (Homo sapiens) (UniProt Q14498); experiment: Induction of RBM39 degradation in human VCaP cells assessed as reduction in RBM39 protein expression at 10 uM preincubated for 24 hrs with DHT followed by wash-out and incubated with compound for 24 hrs in presence of AR antagonist MDV by western blot analysis; type: cell-based
T1 sequence (whole entry): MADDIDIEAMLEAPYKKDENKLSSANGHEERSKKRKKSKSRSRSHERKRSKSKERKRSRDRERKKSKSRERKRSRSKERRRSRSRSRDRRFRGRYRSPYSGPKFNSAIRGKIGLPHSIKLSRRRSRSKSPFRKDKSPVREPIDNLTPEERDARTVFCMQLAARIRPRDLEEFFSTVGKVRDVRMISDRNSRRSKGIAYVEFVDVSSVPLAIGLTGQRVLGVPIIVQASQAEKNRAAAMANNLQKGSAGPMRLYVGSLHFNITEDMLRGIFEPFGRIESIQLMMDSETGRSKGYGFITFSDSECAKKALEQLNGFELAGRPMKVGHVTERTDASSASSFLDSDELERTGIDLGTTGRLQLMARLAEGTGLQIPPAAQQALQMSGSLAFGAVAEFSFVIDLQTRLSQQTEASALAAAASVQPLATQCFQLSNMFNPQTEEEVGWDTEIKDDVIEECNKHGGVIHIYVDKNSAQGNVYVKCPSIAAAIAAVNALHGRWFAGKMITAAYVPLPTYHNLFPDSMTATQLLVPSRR

[3] = molecular target: T1, RNA-binding protein 39 (Homo sapiens); experiment: Induction of RBM39 degradation in human VCaP cells assessed as reduction in AR-V7 protein expression preincubated for 24 hrs with DHT followed by wash-out and incubated with compound for 24 hrs in presence of AR antagonist MDV by western blot analysis; type: cell-based
Mus musculus [4] = experiment: Reduction in AR-V7 level in tumor lysates of NSG mouse xenografted with human VCaP cells at 10 mg/kg, po co-administered with 25 mg/kg AR antagonist MDV via gavage with 5 days on and 2 days off dosing schedule for 6 weeks by immunoblot analysis; type: functional, organism-based; settings: Neoplasm
Mus musculus [5] = experiment: Reduction in total AR isoforms in tumor lysates of NSG mouse xenografted with human VCaP cells at 10 mg/kg, po co-administered with 25 mg/kg AR antagonist MDV via gavage with 5 days on and 2 days off dosing schedule for 6 weeks by immunoblot analysis; type: functional, organism-based; settings: Neoplasm
[6] = molecular target: T2, Androgen receptor (Homo sapiens) (UniProt P10275); experiment: Antagonist activity at AR in human VCaP cells assessed as upregulation of DHT-suppressed AR-V7 mRNA transcript level at 10 uM preincubated for 24 hrs with DHT followed by wash-out and then incubated with compound for 24 hrs by RT-qPCR analysis; type: cell-based
T2 sequence (whole entry): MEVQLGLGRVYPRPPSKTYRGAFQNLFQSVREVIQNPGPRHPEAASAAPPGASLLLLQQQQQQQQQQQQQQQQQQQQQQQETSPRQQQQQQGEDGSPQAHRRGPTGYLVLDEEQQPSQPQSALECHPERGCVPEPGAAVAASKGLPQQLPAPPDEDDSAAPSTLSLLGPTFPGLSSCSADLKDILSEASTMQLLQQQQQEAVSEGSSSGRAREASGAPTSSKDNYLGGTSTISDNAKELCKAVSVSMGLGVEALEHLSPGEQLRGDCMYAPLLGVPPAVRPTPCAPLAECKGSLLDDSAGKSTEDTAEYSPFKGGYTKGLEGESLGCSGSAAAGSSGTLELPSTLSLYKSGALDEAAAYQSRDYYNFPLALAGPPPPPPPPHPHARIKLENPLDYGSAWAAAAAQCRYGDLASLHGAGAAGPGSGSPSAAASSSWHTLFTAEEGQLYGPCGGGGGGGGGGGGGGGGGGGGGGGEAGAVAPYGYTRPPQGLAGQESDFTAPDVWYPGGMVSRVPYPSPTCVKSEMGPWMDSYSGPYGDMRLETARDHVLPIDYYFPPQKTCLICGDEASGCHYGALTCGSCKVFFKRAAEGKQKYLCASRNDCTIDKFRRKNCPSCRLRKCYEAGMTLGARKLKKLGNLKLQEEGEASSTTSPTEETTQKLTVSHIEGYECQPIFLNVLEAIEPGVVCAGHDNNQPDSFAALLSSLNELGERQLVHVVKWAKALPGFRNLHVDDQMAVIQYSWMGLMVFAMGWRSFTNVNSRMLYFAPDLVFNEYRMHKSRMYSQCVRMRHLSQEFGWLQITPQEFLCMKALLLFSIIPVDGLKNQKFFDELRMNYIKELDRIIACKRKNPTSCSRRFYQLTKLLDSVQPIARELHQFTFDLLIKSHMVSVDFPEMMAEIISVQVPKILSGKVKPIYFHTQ

VCaP [7] = experiment: Antitumor activity against human VCaP cells xenografted in NSG mouse assessed as tumor volume at 10 mg/kg, po administered via gavage with 5 days on and 2 days off dosing schedule for 6 weeks and measured bi-weekly for 6 weeks; type: functional
Mus musculus [8] = experiment: Reduction in total AR isoforms in tumor lysates of NSG mouse xenografted with human VCaP cells at 10 mg/kg, po administered via gavage with 5 days on and 2 days off dosing schedule for 6 weeks by immunoblot analysis; type: functional, organism-based; settings: Neoplasm
[9] = molecular target: T1, RNA-binding protein 39 (Homo sapiens); experiment: Induction of RBM39 degradation in human VCaP cells assessed as AR splicing modulation by measuring reduction in AR-V7 splice variant mRNA transcript level incubated for 24 hrs in presence of AR antagonist MDV by RT-qPCR analysis; type: cell-based
VCaP [10] = experiment: Effect on full-length AR mRNA level in human VCaP cells at 10 uM after 24 hrs by RT-qPCR analysis; type: functional, cell-based
Mus musculus [11] = experiment: Reduction in AR-V7 level in tumor lysates of NSG mouse xenografted with human VCaP cells at 10 mg/kg, po administered via gavage with 5 days on and 2 days off dosing schedule for 6 weeks by immunoblot analysis; type: functional, organism-based; settings: Neoplasm
VCaP [12] = experiment: Antiproliferative activity against human VCaP cells assessed as reduction in cell viability at 1 to 10 uM after 14 days in presence of AR antagonist MDV by Celltiter-Glo luminescence assay; type: functional, cell-based; settings: dose microM 1-10, time 14.0 day
VCaP [13] = experiment: Effect on MDV-induced recovery of DHT-suppressed full length AR mRNA expression in human VCaP cells at 10 uM preincubated for 24 hrs with DHT followed by wash-out and then incubated with compound for 24 hrs in presence of AR antagonist , MDV by RT-qPCR analysis; type: functional, cell-based
VCaP [14] = experiment: Recovery of DHT-suppressed full length AR mRNA expression in human VCaP cells at 10 uM preincubated for 24 hrs with DHT followed by wash-out and then incubated with compound for 24 hrs by RT-qPCR analysis; type: functional, cell-based
[15] = molecular target: T1, RNA-binding protein 39 (Homo sapiens); experiment: Induction of RBM39 degradation in human VCaP cells assessed as reduction in RBM39 protein expression preincubated for 24 hrs with DHT followed by wash-out and incubated with compound for 24 hrs in presence of AR antagonist MDV by western blot analysis; type: cell-based
Mus musculus [16] = experiment: Reduction in RBM39 level in tumor lysates of NSG mouse xenografted with human VCaP cells at 10 mg/kg, po co-administered with 25 mg/kg AR antagonist MDV via gavage with 5 days on and 2 days off dosing schedule for 6 weeks by immunoblot analysis; type: functional, organism-based; settings: Neoplasm
Mus musculus [17] = experiment: Reduction in RBM39 level in tumor lysates of NSG mouse xenografted with human VCaP cells at 10 mg/kg, po administered via gavage with 5 days on and 2 days off dosing schedule for 6 weeks by immunoblot analysis; type: functional, organism-based; settings: Neoplasm

Activity [2]: Active
Activity [3]: Dose-dependent effect
Activity [6]: inactive
Activity [9]: Dose-dependent effect
Activity [15]: Dose-dependent effect
SMILES: NS(=O)(=O)c1ccc(S(=O)(=O)Nc2cccc3c(Cl)c[nH]c23)cc1 [INDISULAM]
Activity (VCaP [1]): 409 mm3
inhibition (Mus musculus [4]): Active
inhibition (Mus musculus [5]): Active
Activity (VCaP [7]): 152 mm3
inhibition (Mus musculus [8]): Active
Activity (VCaP [10]): inactive
inhibition (Mus musculus [11]): Active
Activity (VCaP [12]): Active
Activity (VCaP [13]): inactive
Activity (VCaP [14]): Active
inhibition (Mus musculus [16]): inactive
inhibition (Mus musculus [17]): Active
